Test results taken from article PMC3723589 (Channels, 2010).
Several values for one entry are separate records, joined by “and”; a condition that tells them apart may be missing. Identical values can stand only once. Like-named read-outs stand apart in the source and are kept apart here.

How the values were obtained:
[1] = biological target: T1, MC13 (Slo1(1-181):Slo3(171-1121)) (Mus musculus, UniProt O54982); assay type: cell-based
[2] = quinidine; cited from earlier work
[3] = system: native pH-dependent KSper K+ channel; settings: 500 μM quinidine; activation at pH 7.5 and +100 mV; cited from earlier work
mouse Slo1 K+ channels [4] = biological target: T2, mouse Slo1 K+ channels (Mus musculus, UniProt Q08460); test: Block of Slo1 currents, blocker applied extracellularly to outside-out patches; assay type: cell-based
T2 sequence (Q08460 66-1209 limits assumed): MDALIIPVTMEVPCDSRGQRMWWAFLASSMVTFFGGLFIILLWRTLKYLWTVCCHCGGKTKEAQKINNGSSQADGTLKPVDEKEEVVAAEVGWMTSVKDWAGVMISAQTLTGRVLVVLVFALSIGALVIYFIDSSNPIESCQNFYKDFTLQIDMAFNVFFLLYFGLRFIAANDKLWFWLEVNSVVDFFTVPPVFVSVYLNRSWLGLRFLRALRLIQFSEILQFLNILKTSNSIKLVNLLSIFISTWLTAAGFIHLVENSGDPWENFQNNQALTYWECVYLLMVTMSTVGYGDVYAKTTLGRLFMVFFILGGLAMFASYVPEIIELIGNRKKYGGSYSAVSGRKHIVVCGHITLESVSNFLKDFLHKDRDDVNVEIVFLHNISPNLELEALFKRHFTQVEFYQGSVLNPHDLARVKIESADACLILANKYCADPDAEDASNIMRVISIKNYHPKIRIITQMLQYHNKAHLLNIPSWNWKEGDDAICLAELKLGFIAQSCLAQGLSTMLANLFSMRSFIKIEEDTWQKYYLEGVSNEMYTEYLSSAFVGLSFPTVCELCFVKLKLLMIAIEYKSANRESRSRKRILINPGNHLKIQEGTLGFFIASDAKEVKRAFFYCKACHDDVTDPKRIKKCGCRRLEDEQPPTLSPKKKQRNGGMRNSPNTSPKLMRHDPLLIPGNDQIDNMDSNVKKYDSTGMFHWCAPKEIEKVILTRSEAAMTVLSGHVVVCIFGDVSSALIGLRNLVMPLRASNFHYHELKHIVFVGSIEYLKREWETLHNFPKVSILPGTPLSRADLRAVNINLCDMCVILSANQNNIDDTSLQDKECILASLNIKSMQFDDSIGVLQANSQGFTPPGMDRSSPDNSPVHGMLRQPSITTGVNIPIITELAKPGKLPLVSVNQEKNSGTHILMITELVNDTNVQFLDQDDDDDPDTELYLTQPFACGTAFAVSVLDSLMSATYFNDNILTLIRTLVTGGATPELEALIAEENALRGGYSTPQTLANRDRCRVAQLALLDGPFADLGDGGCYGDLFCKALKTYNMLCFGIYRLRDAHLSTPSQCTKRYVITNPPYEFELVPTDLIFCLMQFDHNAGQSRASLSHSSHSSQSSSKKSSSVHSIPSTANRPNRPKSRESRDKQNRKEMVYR

mouse Slo1 K+ channels [5] = biological target: T2, mouse Slo1 K+ channels; test: Block of Slo1 currents, blocker applied cytosolically to inside-out patches; assay type: cell-based
ROMK1 = settings: cited from earlier work
[6] = pK and percent protonation of tertiary amines; assay type: physicochemical; settings: quinidine at pH 8.5; calculated from pK 8.6
sperm = settings: cited from earlier work
[7] = biological target: T1, MC13 (Slo1(1-181):Slo3(171-1121)); test: Block of MC13; assay type: cell-based
IRK1 = settings: read-out: EC50, block of IRK1; cited from earlier work
[8] = intracellular quinidine, pH 8.5, fit OB-CB (2') 4 params
[9] = extracellular quinidine, 300 μM Ca2+, pH 8.5, fit OB-CB (2') 4 params
[10] = extracellular quinidine, pH 8.5, fit OB-CB (2') 4 params

T1 sequence (O54982 171-1121): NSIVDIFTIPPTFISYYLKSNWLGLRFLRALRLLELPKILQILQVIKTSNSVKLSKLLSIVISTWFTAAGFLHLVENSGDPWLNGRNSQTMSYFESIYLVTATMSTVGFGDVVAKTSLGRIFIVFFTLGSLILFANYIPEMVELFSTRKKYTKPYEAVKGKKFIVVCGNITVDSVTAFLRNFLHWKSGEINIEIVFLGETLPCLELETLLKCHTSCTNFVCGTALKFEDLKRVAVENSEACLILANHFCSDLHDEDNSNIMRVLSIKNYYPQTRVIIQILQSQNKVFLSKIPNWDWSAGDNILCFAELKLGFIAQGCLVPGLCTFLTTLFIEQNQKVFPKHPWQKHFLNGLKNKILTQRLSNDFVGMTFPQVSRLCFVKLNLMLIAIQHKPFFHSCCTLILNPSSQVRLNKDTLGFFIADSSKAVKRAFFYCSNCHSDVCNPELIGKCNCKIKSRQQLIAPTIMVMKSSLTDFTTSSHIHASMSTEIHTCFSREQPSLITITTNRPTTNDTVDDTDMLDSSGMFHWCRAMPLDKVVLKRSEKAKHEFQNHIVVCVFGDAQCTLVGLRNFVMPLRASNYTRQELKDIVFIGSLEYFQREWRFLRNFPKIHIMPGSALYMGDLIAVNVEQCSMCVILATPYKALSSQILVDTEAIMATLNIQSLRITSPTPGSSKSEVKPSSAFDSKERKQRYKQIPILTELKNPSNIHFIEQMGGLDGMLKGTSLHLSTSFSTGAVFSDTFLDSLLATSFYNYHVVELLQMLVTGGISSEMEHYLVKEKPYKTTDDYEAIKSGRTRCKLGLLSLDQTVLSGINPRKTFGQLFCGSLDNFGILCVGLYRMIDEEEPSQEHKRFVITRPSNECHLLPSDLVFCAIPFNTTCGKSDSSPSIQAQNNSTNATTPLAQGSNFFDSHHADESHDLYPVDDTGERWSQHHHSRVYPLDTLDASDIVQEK
T1 sequence (Q08460 66-246 partner): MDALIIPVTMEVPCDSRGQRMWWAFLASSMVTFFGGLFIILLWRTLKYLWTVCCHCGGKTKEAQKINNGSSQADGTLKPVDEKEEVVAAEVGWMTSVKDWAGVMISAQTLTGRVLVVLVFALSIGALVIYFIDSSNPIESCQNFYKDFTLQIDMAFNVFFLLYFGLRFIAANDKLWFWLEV

- change in effective Kb(0), pH 8.5 versus pH 8.2 ([1]; cytosolic quinidine, Scheme 2a): approximately 2 fold
- zc [1, 8]: -0.15 ± 0.38 e
- zo [1, 8]: -0.38 ± 0.10 e
- block of MC13 at lower concentrations than block of Slo1 currents ([1]; quinidine, at potentials near 0 mV): ~ 100 fold
- Kb (mouse Slo1 K+ channels [4]): 950 ± 20 µM
- Kd (mouse Slo1 K+ channels [4]; Kbc, extracellular quinidine, 300 μM Ca2+, pH 8.5, fit OB-CB (2') 4 params): 1200 ± 210 µM
- Kd (mouse Slo1 K+ channels [4]; Kbo, extracellular quinidine pH 7.0, 300 μM Ca2+, pH 8.5, fit OB (1a) 2 params): 950 ± 20 µM
- Kd (mouse Slo1 K+ channels [4]; Kbo, extracellular quinidine, 300 μM Ca2+, pH 8.5, fit OB-CB (2') 4 params): 1510 ± 160 µM
- Kd (mouse Slo1 K+ channels [4]; Kbo, extracellular quinidine, 300 μM Ca2+, pH 8.5, fit OB-CB (2a) 2 params): 1490 ± 40 µM
- zo (zδ) (mouse Slo1 K+ channels [4]; extracellular quinidine pH 7.0, 300 μM Ca2+, pH 8.5, fit OB (1a) 2 params): 0.047 ± 0.01 e and 0.05 ± 0.01 e
- zc (mouse Slo1 K+ channels [4]; [9]): 0.66 ± 0.1 e
- zo (mouse Slo1 K+ channels [4]; [9]): 0.06 ± 0.08 e
- Kb (mouse Slo1 K+ channels [5]): 92.8 ± 9.8 µM
- Kd (mouse Slo1 K+ channels [5]): 207 ± 7.4 µM
- effective change in Kb(0), pH 8.5 versus pH 7.0 (mouse Slo1 K+ channels [5]; cytosolic quinidine): 1.56 fold
- zδ (mouse Slo1 K+ channels [5]; cytosolic quinidine, 10 μM Ca2+ at pH 7.0, Eqn. 1 open channel block): 0.11 ± 0.03 e
- zo (mouse Slo1 K+ channels [5]; intracellular quinidine, 300 μM Ca2+, pH 8.5, fit OB-CB (2a) 2 params): 0.28 ± 0.02 e
- percent protonated [6]: 55.7% and 55.73%
- quinidine concentration giving strong block of Slo3 ([7]; at potentials near 0 mV, irrespective of the side of application): less than 10 μM
- zc [7, 10]: -0.55 ± 1.5 e
- zo [7, 10]: -0.27 ± 0.02 e
Structure (SMILES): C=C[C@H]1C[N@@]2CC[C@H]1C[C@@H]2[C@@H](O)c1ccnc2ccc(OC)cc12 [quinidine]
- pK (one protonatable site) [2]: ~4.2
- pK (second protonatable site, value used) [2]: 8.6
- block of native KSper K+ channel [3]: strongly block
- inhibition of ROMK1 (ROMK1): only moderately inhibited
- lowest concentration at which effects on sperm function have been reported (sperm): 20 µM
- EC50 (IRK1): 700 µM
